# From US10328062B2, “Biomarkers and use of MET inhibitor for treatment of cancer” (AMGEN, INC., priority 2014, dated 2019)
# Where two headings read alike, the source gives them in different places.
# Columns and labels:
# [1] = Body weight and tolerability in HCC PDX models; type: in vivo; conditions: LI0612 and LI1078 models
# Experimental: Two HCC patient-derived tumor xenograft (PDX) mouse models were established by directly inoculated subcutaneously with primary human HCC tumor tissues into female BABL/c nude mice. Briefly, each mouse (8-10 weeks old) was purchased from Shanghai Laboratory Animal Center (SLAC). All the animal experiments were performed according to the guidelines approved by the Institutional Animal Care and Use Committee (IACUC). The treatment was started when the average size reached about 180 mm^3. Mice were allocated randomly into four experiment groups (12 animals per group) according to their tumor sizes. […]. The tumor size and body weight were measured twice weekly. The length, width, and height of tumors were measured with a caliper. The tumor volume was calculated as L×W×H and expressed in mm^3. The percentage of tumor growth inhibition (% TGI=100%−(VTi−VT0)/(VCi−VC0)*100%) was calculated for evaluating anti-tumor efficacy. VTi, mean tumor size in treatment group on the Day i; VT0, mean tumor volume in treatment group on Day 0; VCi, mean tumor size in vehicle group on Day i; VC0, mean tumor size in vehicle group on Day 0.
# Mice with subcutaneously established tumor tissues were randomly grouped and treated with vehicle or Compound Mat doses of 3, 10 and 30 mg/kg once daily by oral administration for 14 days. […]. […]. […]
# [2] = tested on: SNU-620 cells; experiment: Immunoblot analysis of apoptotic markers; type: cell-based, Human; conditions: 30 nM, 24 hours
# Experimental: (§1) Cells were seeded in 10 cm dishes at varying densities and allowed to adhere by incubating at 37° C. and 5% CO2 overnight. […] Cells were harvested in 250 μL lysis buffer containing protease and phosphatase inhibitors. For suspension cell lines, cells were pelleted prior to lysis buffer addition. Protein concentrations for individual lysates were measured using a BCA protein assay. 25 μg of protein lysate per sample was resolved on Life Technologies (Carlsbad, Calif.) NuPAGE Bis-Tris gels per manufacturer's. Samples were transferred to nitrocellulose membranes for Western blot analysis. Membranes were blocked in 5% milk prepared in TBST for 1 hour at room temperature. Total and phospho-specific antibodies for specified endpoints were used at 1:1000 dilutions in 5% milk/TBST (total) or 5% BSA/TBST (phospho). Membranes were incubated in the presence of appropriate primary antibody overnight at 4° C. Secondary anti-species-IgG HRP conjugated antibodies were diluted 1:5000 in 5% milk/TBST and incubated in the presence of membranes for 1 hour at room temperature. Membranes were exposed to Thermo Scientific (Waltham, Mass.) Super Signal PICO West ECL detection reagent per manufacturer's recommended protocol and exposed to film to document signal.
# (§2) Antibodies detecting total and phospho-MET (Y1234/1235), phospho-Gab1 (Y627), total and phospho-AKT (S473), total and phospho-ERK (T202/Y204), cleaved caspase-3, and cleaved PARP were purchased from Cell Signaling Technologies (Beverly, Mass.). The total β-actin antibody was purchased from Thermo Scientific (Waltham, Mass.). Both secondary anti-rabbit and anti-mouse IgG-HRP conjugated antibodies were purchased from Thermo Scientific (Waltham, Mass.).
# (§3) Flow cytometry cell cycle analysis of MET amplified gastric cancer cell line MKN-45 is represented in FIG. 6. […] BrdU labeling was performed during the final 2 hours of compound treatment. […] Cells were then analyzed by flow cytometry to document effects on the cell cycle. […] Subsequent lysates were analyzed by SDS-PAGE and immunoblot using antibodies detecting cleaved PARP, cleaved caspase-3 and β-actin.
# [3] = tested on: SNU-5 cells; experiment: Immunoblot analysis of apoptotic markers; type: cell-based, Human; conditions: 30 nM, 24 hours
# Experimental: as §1, §2, §3
# [4] = tested on: MKN-45 cells; experiment: Immunoblot analysis of apoptotic markers; type: cell-based, Human; conditions: 30 nM, 24 hours
# Experimental: as §1, §2, §3
# [5] = tested on: NCI-H1993; experiment: 72 hour cancer cell line viability assay (CellTiter-Glo); type: cell-based; conditions: Homo sapiens
# Experimental: (§4) Human cancer cell lines were purchased from ATCC, JCRB, Sigma Aldrich or DSMZ. All cell lines were propagated in growth media per the suppliers' recommendation and maintained in 5% CO2 and 37° C.
# (§5) Cancer cell line viability assays were carried out using the CellTiter-Glo Luminescent Cell Viability Assay from Promega (Madison, Wis.). Optimal cell seeding densities were determined using time lapse imaging to maximize signal window and ensure cells were not contact growth inhibited at the 72 hour time point. Cells were seeded in 96 well plates in complete growth media and allowed to adhere to the bottom of the plate by incubation at 37° C. and 5% CO2 overnight. […] Plates were incubated at 37° C. and 5% CO2 for 72 hours. Treated plates were then allowed to equilibrate to room temperature along with, CellTiter-Glo substrate and buffer solution prior to use in the viability assay. CellTiter-Glo substrate vials were reconstituted in 10 mL of buffer solution and added to assay plates in 100 μL/well volumes. Plates were shaken for 2 minutes at 700 rotations per minute with an orbit diameter of 3 mm followed by room temperature incubation for 10 minutes. Plates were then read using an Envision plate reader on luminescent setting.
# (§6) To calculate growth inhibition effects (0-200% scale), time zero vehicle treated wells (V0), were read at the time of compound addition for each cell line.
# (§7) Threshold for high vs low MET copy number was set at aCGH log 2 ratio of 2.5. Focal nature of MET copy number increase was defined qualitatively using tiled aCGH results for chromosome 7.
# (§8) Percent growth inhibition is reported on a 0-200% scale where 0% is equivalent to no effect (time 72 hour control), 100% is equivalent to stasis (time 0 hour control) and 200% is equivalent to complete cell death.
# [6] = tested on: MKN-45; experiment: as above; type: cell-based; conditions: Homo sapiens
# Experimental: as §4, §5, §6, §7, §8
# [7] = tested on: panel of 20 cancer cell lines; experiment: 72 hour viability assays, sensitivity status over the panel; type: cell-based; conditions: Homo sapiens
# Experimental: as §4
# as §5, with “Plates were shaken for 2 minutes at 700 rotations per minute with an orbit diameter of 3 mm followed by room temperature incubation for 10 minutes.” left out
# MET copy number for individual cell lines was determined by array comparative genomic hybridization (aCGH) and reported as log 2 ratio of cell line to pooled control DNA from 40 normal donors. […]
compound,measurement,setting,value
"COCCOc1cnc2ccn([C@H](C)c3nnc4c(F)cc(-c5cnn(C)c5)cn34)c(=O)c2c1 [Compound M, 6-{(1R)-1-[8-fluoro-6-(1-methyl-1H-pyrazol-4-yl)[1,2,4]triazolo[4,3-a]pyridin-3-yl]ethyl}-3-(2-methoxyethoxy)-1,6-naphthyridin-5(6H)-one]",body weight,"[1]; 3, 10, 30 mg/kg once daily, 14 days",no significant body weight changed or lost
same,tolerability,[1]; all dose levels,well tolerated
same,cleaved PARP and cleaved caspase-3 levels,[2],elevated cleaved PARP and cleaved caspase-3 levels
same,cleaved PARP and cleaved caspase-3 levels,[3],clear induction of both cleaved PARP and cleaved caspase-3
same,cleaved PARP and cleaved caspase-3 levels,[4],No induction of cleaved PARP or cleaved caspase-3
same,IC50,"[5]; NCI-H1993, NSCLC, MET copy number High, focal Yes, 72 hour viability",17 nM
same,Emax,"[5]; NCI-H1993, 72 hour, 0-200% scale, 100% = stasis, read-out: maximum effect, growth inhibition",100%
same,IC50,"[6]; MKN-45, Gastric, MET copy number High, focal Yes, 72 hour viability",9 nM
same,Emax,"[6]; MKN-45, 72 hour, 0-200% scale, 100% = stasis, read-out: maximum effect, growth inhibition",100%
same,IC50,"[7]; insensitive cell lines, read-out: IC50 values from the viability assay, cell lines binned as insensitive",> 3000 nM
same,IC50,"[7]; sensitive cell lines, read-out: IC50 values from the viability assay, cell lines binned as sensitive",2 to 17 nM
